Laboratory results from patent publication US9309236B2, “PI-kinase inhibitors with broad spectrum anti-infective activity” (The Board of Trustees of the Leland Stanford Junior …, priority 2011, dated 2016).

Tested on: HCV genotype 2a
Experiment: microbe, parasite or virus in culture
Type: cell-based
Details: HCV genotype 2a in Huh7.5 cells, luciferase reporter assay; read-out: 2a EC50
Protocol: Anti-HCV assays are performed as described by Cho et al. “Identification of a class of HCV inhibitors directed against the nonstructural protein NS4B.” Sci. Transl.
(§1) The compounds of Table 1 were prepared according to the methods described above.

Row | SMILES | EC50 [nM]
1 | COc1ccc(-c2sc(NC(=O)CC3CCCCC3)nc2C)cc1S(=O)(=O)Nc1cccc(O)c1 [AB4114] | 200 to 1000

Same assay, conditions: Hepatitis C virus, Huh7.5, HCV genotype 2a in Huh7.5 cells, luciferase reporter assay; read-out: 2a EC50

Row | SMILES | EC50 [nM]
2 | COc1ccccc1NS(=O)(=O)c1cc(-c2sc(NC3CCCCC3)nc2C)ccc1OC [AB4025] | 200 to 1000
3 | COc1ccc(-c2sc(NC3CCCCC3)nc2C)cc1S(=O)(=O)NC1CCCNC1 (centres unmarked) [AB4174] | > 1000
4 | COc1ccc(-c2sc(NCC3CCCCC3)nc2C)cc1S(=O)(=O)Nc1cnc(Cl)c(F)c1 [AB4229] | > 1000
5 | COc1cc(C)c(NS(=O)(=O)c2cc(-c3sc(NC(C)C)nc3C)ccc2OC)cn1 [AB3979] | 200 to 1000
6 | COc1ccc(-c2sc(NC(=O)CC3CCCC3)nc2C)cc1S(=O)(=O)Nc1ccc(Cl)cc1F [AB4171] | 200 to 1000
7 | COc1ccc(-c2sc(CC3CCCCC3)nc2C)cc1S(=O)(=O)NC1CCNCC1 [AB4240] | > 1000
8 | COc1ccc(-c2sc(NCC3CCCCC3)nc2C)cc1S(=O)(=O)Nc1cnc(Cl)c(C)c1 [AB4226] | 200 to 1000
9 | COc1ccc(NS(=O)(=O)c2cc(-c3sc(NC(=O)CC4CCCCC4)nc3C)ccc2OC)c(C)c1 [AB4115] | 200 to 1000
10 | COc1ccc(-c2sc(CC3CCCCC3)nc2C)cc1S(=O)(=O)Nc1ccc(Cl)c(C)c1 [AB4243] | 200 to 1000
11 | COc1ccc(-c2sc(NC(=O)C3CCCC3)nc2C)cc1S(=O)(=O)NC1CCCNC1 (centres unmarked) [AB4179] | > 1000
12 | COc1ccc(-c2sc(NC(=O)CC3CCCCC3)nc2C)cc1S(=O)(=O)Nc1cccc(O)c1 [AB3826] | < 200
13 | COc1ccc(-c2sc(NC(=O)CC3CCCC3)nc2C)cc1S(=O)(=O)Nc1cccc(O)c1 [AB4109] | 200 to 1000
14 | COc1ccc(-c2sc(NC(=O)C3CCCC3)nc2C)cc1S(=O)(=O)Nc1cnc(OC)c(C)c1 [AB3864] | 200 to 1000
15 | COc1ccc(NS(=O)(=O)c2cc(-c3sc(NC4CCCCCC4)nc3C)ccc2OC)c(C)c1 [AB4140] | 200 to 1000
16 | COc1ccc(-c2sc(NC3CCCCC3)nc2C)cc1S(=O)(=O)Nc1ccc(Cl)nc1 [AB4024] | 200 to 1000
17 | COc1ccc(-c2sc(NCC3CCCCC3)nc2C)cc1S(=O)(=O)Nc1cnc(F)cc1C [AB4225] | 200 to 1000
18 | COc1ccc(NS(=O)(=O)c2cc(-c3sc(NC4CCCCC4)nc3C)ccc2OC)cn1 [AB3957] | 200 to 1000
19 | COc1ccc(-c2sc(NCC3CCCCC3)nc2C)cc1S(=O)(=O)NC1CCNCC1 [AB4237] | > 1000
20 | COc1ccc(-c2sc(NC3CCCCC3)nc2C)cc1S(=O)(=O)Nc1cnc(OC)c(C)c1 [AB3948] | 200 to 1000
21 | COc1ccccc1NS(=O)(=O)c1cc(-c2sc(NC(=O)C3CCCC3)nc2C)ccc1OC [AB4051] | 200 to 1000
22 | COc1ccc(-c2sc(NC(=O)CC3CCCCC3)nc2C)cc1S(=O)(=O)Nc1ccc(O)cc1 [AB3680] | > 1000
23 | COc1cc(C)c(NS(=O)(=O)c2cc(-c3sc(NC(=O)CC4CCCCC4)nc3C)ccc2OC)cn1 [AB4112] | 200 to 1000
24 | COc1cc(C)c(NS(=O)(=O)c2cc(-c3sc(NC(=O)CC4CCCC4)nc3C)ccc2OC)cn1 [AB4107] | 200 to 1000
25 | COc1ccc(-c2sc(NC(=O)CC3CCCC3)nc2C)cc1S(=O)(=O)Nc1cnc(F)cc1C [AB4111] | 200 to 1000

Row | SMILES | EC50 [nM]
26 | COc1ccc(-c2sc(NC(C)C)nc2C)cc1S(=O)(=O)Nc1cnc(Cl)c(C)c1 [AB3977] | 200 to 1000
27 | COc1ccc(-c2sc(CC3CCCCC3)nc2C)cc1S(=O)(=O)Nc1ccc(Cl)c(F)c1 [AB4242] | 200 to 1000
28 | COc1ccc(-c2sc(NC3CCCCC3)nc2C)cc1S(=O)(=O)NC1CCNCC1 [AB4173] | > 1000
29 | COc1ccc(-c2sc(NC(=O)CCC3CCCC3)nc2C)cc1S(=O)(=O)Nc1cccc(O)c1 [AB3837] | 200 to 1000
30 | COc1ccc(-c2sc(NC(=O)C3CCCC3)nc2C)cc1S(=O)(=O)Nc1ccc(Cl)cc1 [AB4185] | > 1000
31 | COc1ccc(-c2sc(NC(=O)CC3CCCCC3)nc2C)cc1S(=O)(=O)Nc1cnc(Cl)c(C)c1 [AB4113] | 200 to 1000
32 | COc1ccc(NS(=O)(=O)c2cc(-c3sc(NC(=O)C4CCCC4)nc3C)ccc2OC)c(OC)n1 [AB4054] | 200 to 1000
33 | COc1ccc(-c2sc(NC3CCCCCC3)nc2C)cc1S(=O)(=O)Nc1cccc(O)c1 [AB4139] | 200 to 1000
34 | COc1ccc(-c2sc(NC3CCCCC3)nc2C)cc1S(=O)(=O)Nc1cnc(F)cc1C [AB4052] | < 200
35 | COc1ccc(-c2sc(NC3CCCCC3)nc2C)cc1S(=O)(=O)Nc1cnc(Cl)c(C)c1 [AB3946] | 200 to 1000
36 | COc1ccc(NS(=O)(=O)c2cc(-c3sc(NC4CCCCC4)nc3C)ccc2OC)c(OC)n1 [AB4053] | 200 to 1000
37 | COc1ccc(-c2sc(NC(=O)CC3CCCCC3)nc2C)cc1S(=O)(=O)Nc1cnc(F)cc1C [AB4116] | 200 to 1000
38 | COc1ccc(-c2sc(NC3CCCCCC3)nc2C)cc1S(=O)(=O)Nc1cnc(Cl)c(C)c1 [AB4141] | 200 to 1000
39 | COc1cc(C)c(NS(=O)(=O)c2cc(-c3sc(NC4CCCCC4)nc3C)ccc2OC)cn1 [AB3950] | < 200
40 | COc1ccc(-c2sc(CC3CCCCC3)nc2C)cc1S(=O)(=O)Nc1cnc(Cl)c(C)c1 [AB4239] | 200 to 1000
41 | COc1ccc(-c2sc(NC3CCCCCC3)nc2C)cc1S(=O)(=O)Nc1ccc(Cl)cc1F [AB4145] | 200 to 1000
42 | COc1ccc(-c2sc(NC3CCCCC3)nc2C)cc1S(=O)(=O)Nc1ccc(C)cc1 [AB4106] | 200 to 1000
43 | COc1ccc(-c2sc(NC(=O)C3CCCC3)nc2C)cc1S(=O)(=O)NC1CCNCC1 [AB4178] | > 1000
44 | COc1ccc(-c2sc(CC3CCCCC3)nc2C)cc1S(=O)(=O)NC1CCCNC1 (centres unmarked) [AB4241] | > 1000
45 | COc1ccc(-c2sc(NC(=O)C3CCCC3)nc2C)cc1S(=O)(=O)Nc1ccc(Cl)nc1 [AB4050] | 200 to 1000
46 | COc1ccc(-c2sc(NCC3CCCCC3)nc2C)cc1S(=O)(=O)NCC1CCNCC1 [AB4228] | > 1000
47 | COc1ccc(NS(=O)(=O)c2cc(-c3sc(NC(=O)CC4CCCC4)nc3C)ccc2OC)c(C)c1 [AB4110] | 200 to 1000
48 | COc1ccc(-c2sc(NCC3CCCCC3)nc2C)cc1S(=O)(=O)NC1CCCNC1 (centres unmarked) [AB4227] | > 1000
49 | COc1ccc(-c2sc(NC(=O)CC3CCCC3)nc2C)cc1S(=O)(=O)Nc1cnc(Cl)c(C)c1 [AB4108] | 200 to 1000

Tested on: not listed separately
Experiment: Cell toxicity (CC50), Table 3
Type: cell-based
Details: human, Huh7.5 cells
Protocol: as §1

Row | SMILES | CC50 [nM]
50 | COc1ccccc1NS(=O)(=O)c1cc(-c2sc(NC3CCCCC3)nc2C)ccc1OC [AB4025] | 13000
51 | COc1ccc(-c2sc(NC(=O)CC3CCCC3)nc2C)cc1S(=O)(=O)Nc1cccc(O)c1 [AB4109] | 20700
52 | COc1ccc(NS(=O)(=O)c2cc(-c3sc(NC4CCCCC4)nc3C)ccc2OC)cn1 [AB3957] | 9000
53 | COc1ccc(-c2sc(NC(=O)CC3CCCCC3)nc2C)cc1S(=O)(=O)Nc1ccc(O)cc1 [AB3680] | 54000
54 | COc1ccc(-c2sc(NC(=O)CCC3CCCC3)nc2C)cc1S(=O)(=O)Nc1cccc(O)c1 [AB3837] | 22000
55 | COc1cc(C)c(NS(=O)(=O)c2cc(-c3sc(NC4CCCCC4)nc3C)ccc2OC)cn1 [AB3950] | 12000
56 | COc1ccc(-c2sc(NC3CCCCC3)nc2C)cc1S(=O)(=O)Nc1ccc(C)cc1 [AB4106] | 58500
